Numbering of substitutions follows the chain as printed. Read-outs that look alike come from different tables or passages of the source.
Experiments:
[1] = biological target: T1, His-TEV-AtPP01 ΔcTP L479M (SEQ ID NO: 371) (Arabidopsis thaliana, UniProt P55826, L479M); test: PPO fluorescence IC50 assay, partially purified enzyme; assay type: biochemical
T1 construct: with cTPs removed; made in house; host or cells: E. coli BL21 (DE3), His GraviTrap, partially purified
T1 sequence (P55826 with tags, fused parts or gaps L479M): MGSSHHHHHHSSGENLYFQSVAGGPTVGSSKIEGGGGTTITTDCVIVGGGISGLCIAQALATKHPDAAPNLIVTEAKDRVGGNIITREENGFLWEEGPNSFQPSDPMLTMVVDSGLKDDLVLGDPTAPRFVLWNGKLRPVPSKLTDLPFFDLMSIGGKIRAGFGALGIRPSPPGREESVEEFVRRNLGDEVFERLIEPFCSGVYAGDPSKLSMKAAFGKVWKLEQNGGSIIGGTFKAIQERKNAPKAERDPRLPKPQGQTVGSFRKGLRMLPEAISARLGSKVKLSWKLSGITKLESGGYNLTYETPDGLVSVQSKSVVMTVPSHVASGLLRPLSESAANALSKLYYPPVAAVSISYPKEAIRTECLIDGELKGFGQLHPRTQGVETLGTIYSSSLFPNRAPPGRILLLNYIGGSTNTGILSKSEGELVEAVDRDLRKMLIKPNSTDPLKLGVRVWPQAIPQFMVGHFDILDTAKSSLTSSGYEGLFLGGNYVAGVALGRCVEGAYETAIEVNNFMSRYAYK
From the text: (§1) A pET24 plasmid containing a DNA sequence encoding variants of AtPPO1 derived from Arabidopsis thaliana with cTPs removed and both a 6×His tag and TEV protease cleavage tag added at the N-terminus, codon-optimised for expression in E. coli, and under control of a T7 promoter, was synthesised by Twist Bioscience. The following variants were synthesised: WT AtPPO1 (SEQ ID NO: 370), AtPPO1 L479M (SEQ ID NO: 371), AtPPO1 L479N (SEQ ID NO: 372), AtPPO1 S305L Y426V (SEQ ID NO: 374) and AtPPO1 S305L Y426V L479M (SEQ ID NO: 373). This plasmid was expressed in E. coli BL21 (DE3) with 50 μg/mL kanamycin selection. 10 mL of overnight cultures grown at 37° C. were used to inoculate 1 L AIM (AIM-Terrific Broth Base including Trace elements, Formedium) in 2 L shake flasks. Cultures were grown at 37° C., 200 rpm for 3 hours and then overnight at 26° C. Cells were harvested centrifugation. 5-15 g of cell pellet was lysed in and resuspended in ratio of 1:1.5 in lysis buffer (20 mM Tris pH8, 500 mM sodium chloride, 10% glycerol, 1× complete Protease EDTA-free Inhibitor Tablet (Roche), 10 mM imidazole). The resuspension was sonicated at 75% using 10 cycles of 30 seconds, 40 seconds off. After sonication Triton X-100 was added to the lysates at a final concentration of 0.5%. The lysates were centrifuged at 20,000 rpm for 25 min at 4° C. Cleared lysates were loaded on His GraviTrap (Cytiva) columns, washed with 20 mL of lysis buffer and eluted in elution buffer (20 mM Tris pH8, 500 mM sodium chloride, 10% glycerol, 200 mM imidazole, 0.03% (v/v) Triton X-100). The eluate was desalted on a PD10 column and 2.5-3.2 mL was collected. Protein concentration was measured and calculated using the absorbance at 280 nm. Extracts were diluted 1 in 4 and 10 uL was analysed by SDS PAGE.
(§2) Partially purified Protoporphyrinogen Oxidase enzymes were assayed for activity using fluorescence adapted from the method of Shepherd & Dailey (Anal Biochem. 2005 344(1) 115-121). The assay was performed in black 384 well plates with a clear bottom and the total volume of the reaction mixture was 91 ul. The final assay mixture contained 100 mM K2HPO4 pH7.2, 1 mM Na2EDTA, 5 mM DTT, 20% glycerol (v/v), 0.05% Tween 20 (v/v), 1.1% DMSO (v/v), 1 uM protoporphyrinogen IX and 1.5 nM enzyme. Compounds were dissolved in DMSO at 1 mM and a 4-fold serial dilution carried out to give 8 rates. 1 ul was added to the assay mixture. This gave final compound concentrations of 11, 2.7, 0.69, 0.17, 0.04, 0.01, 0.002, 0.0007 uM. Enzyme and inhibitor were preincubated for 5 minutes prior to starting the reaction with the addition of the substrate. […] IC50s were calculated using GraphPad Prism 7.05 nonlinear regression (Table 6). Each compound was tested in duplicate.

[2] = biological target: T2, His-TEV-AtPPO1 ΔcTP V002 (SEQ ID NO: 373) (Arabidopsis thaliana, UniProt P55826, L479M/S305L/Y426V); test: as above; assay type: biochemical
T2 construct: with cTPs removed; made in house; host or cells: E. coli BL21 (DE3), His GraviTrap, partially purified
T2 sequence (P55826 with tags, fused parts or gaps S305L/Y426V/L479M): T1 sequence (P55826 with tags, fused parts or gaps L479M) with S290L, Y411V
From the text: as §1, §2

[3] = role: inhibitor, 1 uM protoporphyrinogen IX, <1.0 is below detection limit of assay

Row | SMILES | IC50 [1] [nM] | IC50 [2] [nM] | IC50 [1, 3] [nM] | IC50 [2, 3] [nM]
1 | C=CCOC(=O)C(C)(C)OC(=O)c1cc(-n2c(=O)cc(C(F)(F)F)n(C)c2=O)ccc1Cl [Butafenacil, butafenacil] | 0.7 | 12.5 | – | –
2 | CCOC(=O)COc1cc(-c2nn(C)c(OC(F)F)c2Cl)c(F)cc1Cl [Pyraflufen-ethyl, pyraflufen-ethyl] | 0.7 | 24.2 | – | –
3 | CS(=O)(=O)NC(=O)c1cc(Oc2ccc(C(F)(F)F)cc2Cl)ccc1[N+](=O)[O-] [Fomesafen, fomesafen] | 1.2 | 0.5 | – | –
4 | CCOC(=O)[C@]1(C)CC(c2cc(-n3c(=O)n(C)c(=S)n(C)c3=O)c(F)cc2Cl)=NO1 [Herbicide D, ethyl (5S)-3-[2-chloro-5-(3,5-dimethyl-2,6-dioxo-4-thioxo-1,3,5-triazinan-1-yl)-4-fluoro-phenyl]-5-methyl-4H-isoxazole-5-carboxylate] | 0.6 | 335 | – | –
5 | CCOC(=O)C1(C)CC(c2cc(-n3c(=O)cc(C(F)(F)F)n(C)c3=O)c(F)cc2Cl)=NO1 (centres unmarked) [Herbicide C, 3-(2-chloro-4-fluoro-5-(3-methyl-2,6-dioxo-4-trifluoromethyl-3,6-dihydropyrimidin-1(2H)-yl)phenyl)-5-methyl-4,5-dihydroisoxazole-5-carboxylic acid ethyl ester] | 0.8 | 121 | – | –
6 | C#CCN1C(=O)C(F)(F)Oc2cc(F)c(-n3c(=O)n(C)c(=S)n(C)c3=O)cc21 [Herbicide B, trifludimoxazin] | 0.8 | 2.1 | – | –
7 | C#CCN1C(=O)COc2cc(F)c(N3C(=O)C4=C(CCCC4)C3=O)cc21 [Flumioxazin, flumioxazin] | 1 | 187 | – | –
8 | CC(C)N(C)S(=O)(=O)NC(=O)c1cc(-n2c(=O)cc(C(F)(F)F)n(C)c2=O)c(F)cc1Cl [Herbicide E, saflufenacil] | 2.4 | 998 | – | –
9 | C#CCOc1cc(-n2nc3n(c2=O)CCCC3)c(Cl)cc1Cl [Azafenadin] | 0.7 | 149 | – | –
10 | C#CCN(C)c1c(C#N)cnn1-c1nn2c(c1Cl)CCCC2 [Pyraclonil] | 2.3 | 5560 | – | –
11 | CCOC(=O)COc1ncccc1Oc1cc(-n2c(=O)cc(C(F)(F)F)n(C)c2=O)c(F)cc1Cl [Herbicide A, epyrifenacil] | 0.8 | 447 | – | –
12 | CC(C)Oc1cc(-n2nc(C(C)(C)C)oc2=O)c(Cl)cc1Cl [Oxadiazaon] | 11.2 | 5620 | – | –
13 | COC(=O)C(C)ON=Cc1cc(-n2c(=O)cc(C(F)(F)F)n(C)c2=O)c(F)cc1Cl (centres unmarked) [Flufenoximacil, flufenoximacil] | – | – | 0.7 | 863
